Entries after “also recorded” stand apart in the source; their conditions may differ.
Columns and labels:
Assay type in all cases: in vivo
HPV16 pseudovirions = test: Cutaneous HPV challenge with HPV16 pseudovirions (luciferase reporter); conditions: BALB/c mice vaccinated s.c. three times, bioluminescence 3 days post-challenge
Experimental: (§1) Immunization of mice. All animal experimental work was done in accordance with Johns Hopkins Medical Institutions Animal Care and Use Committee guidelines. BALB/c and C57BL/6 (NCI, Frederick, Md.) wild type or MyD88 (D. Golenbock, UMass Medical Center, […], Mass.), CD40, or MHCII deficient mice (Jackson Laboratories, Bar Harbor, Me.) were used. Mice aged 4-6 wks were immunized with P25-P2C-HPV vaccine or various controls. All vaccine and control peptides were dissolved in phosphate-buffered saline (PBS). Mice received two booster immunizations at 4 wks and 8 wks after priming immunization in the same fashion and dose. (i) subcutaneous (s.c.): Each mouse was administered 20 nmols of vaccine in a total volume of 100 μL or an equivalent amount of several control preparations at the base of the tail. (ii) intranasal (i.n.): Anesthesia induction was accomplished within 3 to 5 mins using a chamber filled with 2.5% isoflurane (Baxter, Deerfield, Ill.). While anesthetized, each mouse was administered 20 nmols of lipopeptide in a total volume of 50 μL of vaccine or an equivalent amount of several control preparations via controlled micropipetting into the nares.
(§2) Cutaneous HPV challenge. […] Equal areas encompassing the site of virus inoculation were analyzed using Living Image 2.20 software (Xenogen), and background was determined by challenge with non-infectious HPV pseudovirions lacking L2.

HPV45 pseudovirions = test: Cutaneous HPV challenge with HPV45 pseudovirions (luciferase reporter); conditions: BALB/c mice vaccinated s.c. three times, luminescence 72 hrs post-challenge
Experimental: as §1, §2

HPV16 L2 17-36 = HPV16 L2 17-36 peptide ELISA of sera from immunized mice; conditions: mice vaccinated s.c. or i.n.; compared with saline controls
Experimental: as §1
Collection and quantification of HPV specific antibody responses. […] Presence of serum antibodies against HPV16 was assessed by enzyme-linked immunosorbent assays (ELISA). […]

Substance | protection from cutaneous challenge with HPV16 pseudovirions (HPV16 pseudovirions) | protection from cutaneous challenge with HPV45 pseudovirions (HPV45 pseudovirions) | L2-specific antibody (immune) response by ELISA (HPV16 L2 17-36)
HPV16 L1 VLP: virus-like particles of HPV16 major capsid protein L1, control vaccine | protected mice from cutaneous challenge | did not protect | –
QLYKTCKQAGTCPPDIIPKV (listed as Human papillomavirus) [HPV16 L2 17-36 peptide] | failed to protect the mice | did not protect | immune responses similar to saline controls; also recorded: failed to induce an L2-specific antibody response

Source: patent US9138470B2, “Multi-component L2 vaccine for prevention of human papilloma virus infection” (The Johns Hopkins University, priority 2007, dated 2015)
